Assay results from patent US20210386841A1, “COMPOSITIONS FOR TRANSFECTING mRNA INTO A CELL AND THEIR APPLICATIONS” (POLYPLUS TRANSFECTION, priority 2018, published 2021).

Columns and labels:
[1] = test system: Jurkat Clone E6-1 human T lymphoblast cells; assay: eGFP mRNA transfection, Jurkat cells (96-well); format: cell-based; conditions: 150 ng eGFP mRNA, 24 h
Procedure: Jurkat Clone E6-1 (ATCC® TIB-152™) human T lymphoblast cells were grown in RPMI-1640 (LONZA) with 10% of FBS (EUROBIO) and supplemented with 2 mM Glutamine (LONZA), 100 U/mL of penicillin and 100 μg/mL of streptomycin (LONZA) at 37° C. in a 5% CO2 in air atmosphere.
(§1) mRNA eGFP (996 nt, reference L-6101) from TriLink Technologies was used for the in vitro transfection experiments and expressed enhanced green fluorescent protein which is a common reporter gene (eGFP). This mRNA was capped with a Cap 0, polyadenylated and modified with 5-methylcytidine and pseudo-uridine.
(§2) One day before transfection, Caco-2, THP-1 or BJ Cells were seeded at 10 000, 25 000, or 5 000 cells per well (96-well plate format), respectively, in 125 μL of their respective complete medium and incubated at 37° C. in a 5% CO2 in air atmosphere. For Jurkat cells, 25 000 cells were seeded per well prior transfection. On the day of transfection 150 ng of mRNA was added in 11.5 μL of 5% glucose solution, mixed with a vortex and incubated for 5 minutes at rt. Then, 1 μL of 1 mM cationic liposomal formulation was added onto the diluted mRNA, mixed with a vortex and incubated for 15 minutes at rt. The formulated mRNA solution (12.5 μL) was added into the well and the plate was incubated for 24 hours at 37° C. in a 5% CO2 in air atmosphere.
(§3) For the GFP expression analysis, the cell culture medium was removed for the adherent cells and 50 μL of trypsin-EDTA (1×, Lonza) was added and the plate was incubated for 5 minutes at 37° C. 150 μL of complete medium were added to neutralize the trypsin, and the GFP expression was analysed (2000 events) by flow cytometry (Exc 488 nm, Em 520 nm) using a Guava easyCyte 6HT cytometer (Millipore).
(§4) All these new liposomal formulations (Table 1) were assessed to deliver mRNA expressing an enhanced green fluorescent protein (eGFP) as reporter gene in order to determine the gene expression and the transfection efficiency (Table 2). mRNA eGFP capped with a Cap 0 in 5′-end, polyadenylated in 3′-end and modified with 5-methylcytidine and pseudo-uridine was used in the transfection assay. The transfection assay was performed as described in the Experimental section where 150 ng of mRNA eGFP was complexed with 1 μL of 1 mM cationic liposomal formulations in a 5% glucose solution before the addition on the cells. One day post-transfection, the eGFP expression was analyzed by flow cytometry to determine the percentage of transfection. Four different cell lines were used in this assay from easy to transfect cells to hard to transfect cells with plasmid DNA, including human BJ skin fibroblast cells, THP-1 human peripheral blood monocytes, Caco-2 human colon epithelial cells and Jurkat Clone E6-1 human T lymphoblast cells, respectively.

[2] = test system: Caco-2 human colon epithelial cells; assay: eGFP mRNA transfection, Caco-2 cells (96-well); format: cell-based; conditions: for Transfection efficiency (eGFP %) CaCO2: co-lipid DOPE, ratio 1/2, 150 ng eGFP mRNA, 24 h
Procedure: Caco-2 (ATCC® HTB-37™) human colon epithelial cells were grown in DMEM 4.5 g/L glucose with 20% FBS supplemented with 1% non-essential amino acids, 1 mM sodium pyruvate, 2 mM glutamine and 100 U/mL of penicillin and 100 μg/mL of streptomycin at 37° C. in a 5% CO2 in air atmosphere.
as §1, §2, §3, §4

[3] = test system: THP-1 human peripheral blood monocyte cells; assay: eGFP mRNA transfection, THP-1 cells (96-well); format: cell-based; conditions: ratio 1/2, 150 ng eGFP mRNA, 24 h
Procedure: THP-1 (ATCC® TIB-202™) human peripheral blood monocyte cells were grown in RPMI-1640 with 10% FBS and supplemented with 10 mM HEPES buffer, 1 mM sodium pyruvate, 0.05 mM 2-mercaptoethanol, 2 mM glutamine, 100 U/mL of penicillin and 100 μg/mL of streptomycin at 37° C. in a 5% CO2 in air atmosphere.
as §1, §2, §3, §4

[4] = test system: BJ human skin fibroblast cells; assay: eGFP mRNA transfection, BJ cells (96-well); format: cell-based; conditions: co-lipid DOPE, ratio 1/2; 150 ng eGFP mRNA; 24 h
Procedure: BJ (ATCC® CRL-2522™) human skin fibroblast cells were grown in Eagle's Minimum Essential Medium with 10% FBS and supplemented with 1% non-essential amino acids, 1 mM sodium pyruvate, 2 mM glutamine and 100 U/mL of penicillin and 100 μg/mL of streptomycin at 37° C. in a 5% CO2 in air atmosphere.
as §1, §2, §3, §4

[5] = test system: BJ, THP-1, Caco-2 and Jurkat cells; assay: eGFP mRNA transfection, overall statements on the four cell lines; format: cell-based, human; conditions: formulated with co-lipid DOPE or DPyPE
Procedure: as §1, §2, §3, §4

[6] = co-lipid DOPE, ratio compound/co-lipid 1/2, 1 μL of 1 mM formulation, flow cytometry

Structure (SMILES) | Transfection efficiency (eGFP %) Jurkat [1, 6] | Transfection efficiency (eGFP %) CaCO2 [2] | Transfection efficiency (eGFP %) THP-1 ([3]; co-lipid DOPE) | Transfection efficiency (eGFP %) BJ [4] | transfection activity (in words) [5] | Transfection efficiency (eGFP %) Jurkat ([1]; co-lipid DPyPE, ratio 1/2) | Transfection efficiency (eGFP %) THP-1 ([3]; co-lipid DPyPE) | GFP expression one day post-transfection, comparison of co-lipids ([2]; CaCo2 cells, co-lipid DPyPE versus DOPE, PaLiPE, DiLiPE, molar ratio 1:2 (FIG. 3))
CCCCCCCCCCCCCCCCCCC(CCCCC(CCCCCCCCCCCCCC)CCCCCCCCCCCCCC)[n+]1ccn(C)c1.[Cl-] (stereo not drawn) [Compound W11.7, 1-methyl-3-(24-tetradecyloctatriacontan-19-yl)-1H-imidazol-3-ium chloride] | 15-25% | 35-45% | 80-90% | 90-95% |  |  |  | 
CCCCCCCCCCCCCCCCC(CCCCCCCCCCCCCCCC)[n+]1ccn(C)c1.[Cl-] [Compound W5.3, 1-methyl-3-(tritriacontan-17-yl)-1H-imidazol-3-ium chloride] | 0-2% | 5-10% | 50-60% | 60-70% | reduced transfection activity |  |  | 
CCCCCCCC/C=C\CCCCCCCCC(CCCCC(CCCCCCCCCCCCCC)CCCCCCCCCCCCCC)[n+]1ccn(C)c1.[Cl-] (stereo not drawn) [Compound W10.7, 1-methyl-3-(24-tetradecyloctatriacont-9-en-19-yl)-1H-imidazol-3-ium chloride] | 25-30% | 65-75% | 70-80% | 90-95% |  |  |  | 
CCCCCCCC/C=C\CCCCCCCCC(CCCCC(CCCCCCCCCCCCCC)CCCCCCCCCCCCCC)[n+]1ccn(CCCC)c1.[Cl-] (stereo not drawn) [Compound W20.7, 1-butyl-3-(24-tetradecyloctatriacont-9-en-19-yl)-1H-imidazol-3-ium chloride] | 60-70% | 80-85% | 80-90% | 90-95% |  | 50-60% | 65-80% | 
CCCCCCCCCCCCCCCCCCC(CCCCCCCCCCCCCCCCC)C[n+]1ccn(C)c1.[Cl-] (stereo not drawn) [Compound W7.4, 1-methyl-3-(2-heptadecylicosyl)-1H-imidazol-3-ium chloride] | 5-15% | 5-15% | 40-50% | 65-75% |  |  |  | 
CCCCCCC/C=C\CCCCCCCCC(CCCCCCCC/C=C\CCCCCCCC)[n+]1ccn(C)c1.[Cl-] (stereo not drawn) [Compound W8.7, 1-methyl-3-(hexatriaconta-8,27-dien-18-yl)-1H-imidazol-3-ium] | 10-15% |  | 70-80% | 80-85% |  |  |  | 
CCCCCCCCCCCCCCC(CCCCCCCCCCCCCC)[n+]1ccn(C)c1.[Cl-] [Compound W4.3, 1-methyl-3-(nonacosan-15-yl)-1H-imidazol-3-ium chloride] | 0-1% | 5-10% | 30-40% | 50-60% | reduced transfection activity |  |  | 
CCCCCCCCCCCCCCCCCCC(CCCCCCCCCC)[n+]1ccn(C)c1.[Cl-] (stereo not drawn) [Compound W6.3, 1-methyl-3-(nonacosan-11-yl)-1H-imidazol-3-ium chloride] | 20-25% | 5-10% | 30-40% | 80-85% |  |  |  | 
CCCCCCCCCCCCCCCCCCC(CCCCCCCCCCCCCCCCCC)n1cc[n+](C)c1.[Cl-] [MONI, 1-Methyl-3-(1-Octadecyl-Nonadecyl)-3H-Imidazol-1-ium chloride, reference compound] | 5-10% | 5-10% | 30-40% | 50-60% |  |  |  | 
CCCCCCCCCCCCCCCCC(CCCCCCCCCCCCCCCC)CCC[n+]1ccn(C)c1 [Compound W29.5, 1-methyl-3-(4-hexadecylicosyl)-1H-imidazol-3-ium chloride] | 10-15% |  | 30-40% |  | without really affecting the transfection activity |  |  | 
CCCCCCC/C=C\CCCCCCCCC(CCCCCCCCCCCCCCCCCC)[n+]1ccn(C)c1.[Cl-] (stereo not drawn) [Compound W3.5, 1-methyl-3-(hexatriacont-8-en-18-yl)-1H-imidazol-3-ium chloride] | 10-15% | 35-40% | 35-45% | 80-95% |  |  |  | 
CCCCCCCCCCCCCCCCCCC(CCCCCCCCCCCCCCCCCC)CCCCC(CCCCCCCCCCCCCCCCCC)[n+]1ccn(C)c1.[Cl-] (stereo not drawn) [Compound W13.7, 1-methyl-3-(24-octadecyldotetracontan-19-yl)-1H-imidazol-3-ium chloride] | 10-20% | 75-80% | 80-85% | 65-75% |  |  |  | 
CCCCCCCC/C=C\CCCCCCCCC(CCCCCCCC/C=C\CCCCCCCC)[n+]1ccn(C)c1.[Cl-] [Compound W1.4, 1-methyl-3-(heptatriaconta-9,28-dien-19-yl)-1-methyl-1H-imidazol-3-ium chloride] | 10-15% | 15-25% | 80-85% | 80-95% |  |  |  | 
CCCCCCC/C=C\CCCCCCCCC(CCCCCCCCCCCCCC)[n+]1ccn(C)c1 (stereo not drawn) [Compound W2.5] | 1-5% | 5-10% | 70-75% | 70-85% |  |  |  | 
CCCCCCCCCCCCCCC(CCCCCCCCCCCCCC)CCCCC(CCCCCCCCCCCCCC)[n+]1ccn(C)c1.[Cl-] (stereo not drawn) [Compound W9.7, 1-methyl-3-(20-tetradecyltetratriacontan-15-yl)-1H-imidazol-3-ium chloride] | 10-15% | 40-50% | 70-80% | 90-95% |  |  |  | optimal
